Assay results from US11926614B2, “1,2,4-triazole derivatives as tankyrase inhibitors” (priority 2018, dated 2024).
Where two headings read alike, the source gives them in different places.

Columns and labels:
TNKS2 = TNKS2 (Homo sapiens (Human), UniProt Q9H2K2); assay: Biochemical IC50 TNKS2
Text: (§1) XLfit (idbs) was used to determine the IC50-values in inhibition experiments. The following formula was chosen to fit the data points (Langmuir Binding Isotherm): fit=((A+(B*x))+4(C−B)*(1−exp((−1*D)*x)))/D)), res=(y−fit)

HEK293 = assay: Cellular IC50 HEK293; type: cell-based
Text: as §1

[1] = read-out: Biochemical IC50 TNKS2
[2] = Homo sapiens, HEK293, HEK293; read-out: Cellular IC50 HEK293
[3] = Homo sapiens, HEK293; read-out: Cellular IC50 HEK293
[4] = Homo sapiens, HEK293, read-out: Cellular IC50 HEK293

Chain of TNKS2 (Q9H2K2 whole entry): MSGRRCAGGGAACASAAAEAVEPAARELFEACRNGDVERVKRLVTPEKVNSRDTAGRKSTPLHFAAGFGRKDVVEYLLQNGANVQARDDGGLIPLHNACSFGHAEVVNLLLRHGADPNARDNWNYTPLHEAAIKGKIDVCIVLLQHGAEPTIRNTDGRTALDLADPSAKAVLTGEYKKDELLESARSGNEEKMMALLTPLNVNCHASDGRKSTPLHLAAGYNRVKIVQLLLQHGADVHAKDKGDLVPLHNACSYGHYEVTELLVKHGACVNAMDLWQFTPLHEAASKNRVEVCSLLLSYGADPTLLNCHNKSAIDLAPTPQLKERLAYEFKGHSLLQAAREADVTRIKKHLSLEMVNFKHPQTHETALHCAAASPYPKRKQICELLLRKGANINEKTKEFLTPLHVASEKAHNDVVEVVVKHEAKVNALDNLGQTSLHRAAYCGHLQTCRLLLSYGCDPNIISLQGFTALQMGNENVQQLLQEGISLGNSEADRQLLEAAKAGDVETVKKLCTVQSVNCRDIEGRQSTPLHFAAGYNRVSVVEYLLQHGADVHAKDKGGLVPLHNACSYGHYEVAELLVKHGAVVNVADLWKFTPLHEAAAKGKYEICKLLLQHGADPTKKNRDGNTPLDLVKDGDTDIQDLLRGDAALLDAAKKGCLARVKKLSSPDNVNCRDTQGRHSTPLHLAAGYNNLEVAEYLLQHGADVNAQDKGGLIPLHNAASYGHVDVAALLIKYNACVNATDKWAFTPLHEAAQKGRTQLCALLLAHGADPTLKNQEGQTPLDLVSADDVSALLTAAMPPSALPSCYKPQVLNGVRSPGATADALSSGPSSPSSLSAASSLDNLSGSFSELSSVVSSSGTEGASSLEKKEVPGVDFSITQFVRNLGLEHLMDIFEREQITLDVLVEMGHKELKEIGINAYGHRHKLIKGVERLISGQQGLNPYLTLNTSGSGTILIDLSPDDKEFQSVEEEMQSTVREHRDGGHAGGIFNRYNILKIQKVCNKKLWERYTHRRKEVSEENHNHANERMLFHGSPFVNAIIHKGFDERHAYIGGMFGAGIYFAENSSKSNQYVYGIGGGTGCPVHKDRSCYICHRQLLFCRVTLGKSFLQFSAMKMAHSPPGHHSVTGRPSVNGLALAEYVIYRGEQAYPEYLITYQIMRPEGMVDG

SMILES | IC50 (TNKS2; [1]) [nM] | IC50 (HEK293; [2]) [nM] | IC50 (HEK293; [3]) [nM] | IC50 (HEK293; [4]) [nM] | IC50 (TNKS2) [nM]
CCOc1ccc(-c2nnc([C@H]3C[C@H](NC(=O)c4ccc5cc[nH]c5n4)C3)n2-c2ccccc2F)nc1 [Example 98, N-((1S,3r)-3-(5-(5-ethoxypyridin-2-yl)-4-(2-fluorophenyl)-4H-1,2,4-triazol-3-yl)cyclobutyl)-1H-pyrrolo[2,3-b]pyridine-6-carboxamide] | 4.9 | 14 | – | – | –
CCOc1ccc(-c2nnc(C34CC(NC(=O)c5ccnc6cccnc56)(C3)C4)n2-c2ccccn2)nc1 [Example 122, N-(3-(5-(5-ethoxypyridin-2-yl)-4-(pyridin-2-yl)-4H-1,2,4-triazol-3-yl)bicyclo[1.1.1]pentan-1-yl)-1,5-naphthyridine-4-carboxamide] | 13 | – | 20 | – | –
CCOc1ccc(-c2nnc([C@H]3C[C@H](NC(=O)c4ccccn4)C3)n2-c2ccc(Cl)s2)nc1 [Example 75, N-((1r,3r)-3-(4-(5-chlorothiophen-2-yl)-5-(5-ethoxypyridin-2-yl)-4H-1,2,4-triazol-3-yl)cyclobutyl)picolinamide] | 12 | – | – | 27 | –
CCOc1ccc(-c2nnc(C34CC(NC(=O)c5ccnc6cc(F)cnc56)(C3)C4)n2-c2ccccc2)nc1 [Example 65, N-(3-(5-(5-ethoxypyridin-2-yl)-4-phenyl-4H-1,2,4-triazol-3-yl)bicyclo[1.1.1]pentan-1-yl)-7-fluoro-1,5-naphthyridine-4-carboxamide] | 1.4 | 10 | – | – | –
O=C(N[C@H]1C[C@H](c2nnc(-c3ccncn3)n2-c2ccccc2Cl)C1)c1ccccn1 [Example 10, N-((1S,3r)-3-(4-(2-chlorophenyl)-5-(pyrimidin-4-yl)-4H-1,2,4-triazol-3-yl)cyclobutyl)picolinamide] | 1.5 | – | 0.2 | – | –
O=C(N[C@H]1C[C@H](c2nnc(-c3ccccc3)n2-c2ccccc2F)C1)c1ccnc2cccnc12 [Example 176, N-((1S,3r)-3-(4-(2-fluorophenyl)-5-phenyl-4H-1,2,4-triazol-3-yl)cyclobutyl)-1,5-naphthyridine-4-carboxamide] | 3.6 | 28 | – | – | –
CCOc1ccc(-c2nnc([C@H]3C[C@H](NC(=O)c4ccnc5cccnc45)C3)n2-c2ccccc2F)nc1 [Example 55, N-((1S,3r)-3-(5-(5-ethoxypyridin-2-yl)-4-(2-fluorophenyl)-4H-1,2,4-triazol-3-yl)cyclobutyl)-1,5-naphthyridine-4-carboxamide] | 2 | – | 0.814 | – | –
CCOc1ccc(-c2nnc([C@H]3C[C@H](NC(=O)c4ccnc5cc(F)cnc45)C3)n2-c2ccc(C)s2)nc1 [Example 84, N-((1r,3r)-3-(5-(5-ethoxypyridin-2-yl)-4-(5-methylthiophen-2-yl)-4H-1,2,4-triazol-3-yl)cyclobutyl)-7-fluoro-1,5-naphthyridine-4-carboxamide] | 1.6 | – | – | 1 | –
O=C(N[C@H]1C[C@H](c2nnc(-c3ccncn3)n2-c2ccccc2Cl)C1)c1cccnc1 [Example 9, N-((1S,3r)-3-(4-(2-chlorophenyl)-5-(pyrimidin-4-yl)-4H-1,2,4-triazol-3-yl)cyclobutyl)nicotinamide] | 18 | 50 | – | – | –
Cc1cccc(-c2nnc([C@H]3C[C@H](NC(=O)c4ccc5cnccc5n4)C3)n2-c2ccccc2F)n1 [Example 200, N-((1S,3r)-3-(4-(2-fluorophenyl)-5-(6-methylpyridin-2-yl)-4H-1,2,4-triazol-3-yl)cyclobutyl)-1,6-naphthyridine-2-carboxamide] | 4 | 12 | – | – | –
CCOc1ccc(-c2nnc([C@H]3C[C@H](NC(=O)c4cccc5cccnc45)C3)n2-c2ccc(C)s2)nc1 [Example 83, N-((1r,3r)-3-(5-(5-ethoxypyridin-2-yl)-4-(5-methylthiophen-2-yl)-4H-1,2,4-triazol-3-yl)cyclobutyl)quinoline-8-carboxamide] | 2.4 | – | – | 1 | –
O=C(N[C@H]1C[C@H](c2nnc(-c3ccncn3)n2-c2ccccc2Cl)C1)c1ccncn1 [Example 11, N-((1S,3r)-3-(4-(2-chlorophenyl)-5-(pyrimidin-4-yl)-4H-1,2,4-triazol-3-yl)cyclobutyl)pyrimidine-4-carboxamide] | 3.5 | 4 | – | – | –
CCOc1ccc(-c2nnc([C@H]3C[C@H](NC(=O)c4ccnc5cc(F)cnc45)C3)n2-c2ccccc2F)nc1 [Example 57, N-((1S,3r)-3-(5-(5-ethoxypyridin-2-yl)-4-(2-fluorophenyl)-4H-1,2,4-triazol-3-yl)cyclobutyl)-7-fluoro-1,5-naphthyridine-4-carboxamide] | 2 | – | 0.17 | – | –
O=C(N[C@H]1C[C@H](c2nnc(-c3ccncn3)n2-c2ccccc2Cl)C1)c1ccccc1 [Example 12, N-((1S,3r)-3-(4-(2-chlorophenyl)-5-(pyrimidin-4-yl)-4H-1,2,4-triazol-3-yl)cyclobutyl)benzamide] | 5.5 | 3 | – | – | –
O=C(N[C@H]1C[C@H](c2nnc(-c3ccncn3)n2-c2ccccc2Cl)C1)c1cccc(F)n1 [Example 19, N-((1S,3r)-3-(4-(2-chlorophenyl)-5-(pyrimidin-4-yl)-4H-1,2,4-triazol-3-yl)cyclobutyl)-6-fluoropicolinamide] | 3 | 0.86 | – | – | –
CCOc1ccc(-c2nnc([C@H]3C[C@H](NC(=O)c4ccc5ccccc5n4)C3)n2-c2ccccc2F)nc1 [Example 104, N-((1S,3r)-3-(5-(5-ethoxypyridin-2-yl)-4-(2-fluorophenyl)-4H-1,2,4-triazol-3-yl)cyclobutyl)quinoline-2-carboxamide] | 6.4 | 14 | – | – | –
O=C(N[C@H]1C[C@H](c2nnc(-c3ccccn3)n2-c2ccccc2F)C1)c1ccc2cnccc2n1 [Example 192, N-((1S,3r)-3-(4-(2-fluorophenyl)-5-(pyridin-2-yl)-4H-1,2,4-triazol-3-yl)cyclobutyl)-1,6-naphthyridine-2-carboxamide] | 4.3 | 5.3 | – | – | –
CCOc1ccc(-c2nnc([C@H]3C[C@H](NC(=O)c4ccc5ncccc5n4)C3)n2-c2ccccc2F)nc1 [Example 96, N-((1S,3r)-3-(5-(5-ethoxypyridin-2-yl)-4-(2-fluorophenyl)-4H-1,2,4-triazol-3-yl)cyclobutyl)-1,5-naphthyridine-2-carboxamide] | 1.5 | – | – | 5 | –
CCOc1ccc(-c2nnc(C34CC(NC(=O)c5ccnc6cccnc56)(C3)C4)n2-c2ccncc2)nc1 [Example 172, N-(3-(5-(5-ethoxypyridin-2-yl)-4-(pyridin-4-yl)-4H-1,2,4-triazol-3-yl)bicyclo[1.1.1]pentan-1-yl)-1,5-naphthyridine-4-carboxamide] | 9.4 | – | 43 | – | –
CCOc1ccc(-c2nnc([C@H]3C[C@H](NC(=O)c4ccnc5cccnc45)C3)n2-c2ccc(C)s2)nc1 [Example 82, N-((1r,3r)-3-(5-(5-ethoxypyridin-2-yl)-4-(5-methylthiophen-2-yl)-4H-1,2,4-triazol-3-yl)cyclobutyl)-1,5-naphthyridine-4-carboxamide] | 0.73 | – | – | 0.81 | –
CCOc1ccc(-c2nnc([C@H]3C[C@H](NC(=O)c4ccc(F)cc4)C3)n2-c2ccccc2Cl)nc1 [Example 137, N-((1S,3r)-3-(4-(2-chlorophenyl)-5-(5-ethoxypyridin-2-yl)-4H-1,2,4-triazol-3-yl)cyclobutyl)-4-fluorobenzamide] | 4.9 | 10 | – | – | –
[2H]C([2H])([2H])C([2H])([2H])Oc1ccc(-c2nnc([C@H]3C[C@H](NC(=O)c4cnn5ccccc45)C3)n2-c2ccccc2F)nc1 [Example 142, N-((1S,3r)-3-(5-(5-(ethoxy-d5)pyridin-2-yl)-4-(2-fluorophenyl)-4H-1,2,4-triazol-3-yl)cyclobutyl)pyrazolo[1,5-a]pyridine-3-carboxamide] | – | 55 | – | – | 23
O=C(N[C@H]1C[C@H](c2nnc(-c3nccs3)n2-c2ccccc2)C1)c1ccnc2cccnc12 [Example 33, N-((1r,3r)-3-(4-phenyl-5-(thiazol-2-yl)-4H-1,2,4-triazol-3-yl)cyclobutyl)-1,5-naphthyridine-4-carboxamide] | 3.1 | 4.3 | – | – | –
O=C(N[C@H]1C[C@H](c2nnc(-c3ccccc3)n2-c2ccccc2F)C1)c1ccccn1 [Example 174, N-((1S,3r)-3-(4-(2-fluorophenyl)-5-phenyl-4H-1,2,4-triazol-3-yl)cyclobutyl)picolinamide] | 216 | – | – | 789 | –
O=C(N[C@H]1C[C@H](c2nnc(-c3nccs3)n2-c2ccc(Cl)s2)C1)c1ccccn1 [Example 79, N-((1r,3r)-3-(4-(5-chlorothiophen-2-yl)-5-(thiazol-2-yl)-4H-1,2,4-triazol-3-yl)cyclobutyl)picolinamide] | 27 | 140 | – | – | –
CCOc1ccc(C(=O)N[C@H]2C[C@H](c3nnc(-c4ccncn4)n3-c3ccccc3Cl)C2)nc1 [Example 130, N-((1R,3r)-3-(4-(2-chlorophenyl)-5-(pyrimidin-4-yl)-4H-1,2,4-triazol-3-yl)cyclobutyl)-5-ethoxypicolinamide] | 4.8 | 1.4 | – | – | –
CCOc1ccc(-c2nnc([C@H]3C[C@H](NC(=O)c4cc5occc5[nH]4)C3)n2-c2ccccc2F)nc1 [Example 151, N-((1S,3r)-3-(5-(5-ethoxypyridin-2-yl)-4-(2-fluorophenyl)-4H-1,2,4-triazol-3-yl)cyclobutyl)-4H-furo[3,2-13]pyrrole-5-carboxamide] | 14 | 35 | – | – | –
O=C(N[C@H]1C[C@H](c2nnc(-c3nccs3)n2-c2ccccc2)C1)c1ccc(F)cc1 [Example 35, 4-fluoro-N-((1r,3r)-3-(4-phenyl-5-(thiazol-2-yl)-4H-1,2,4-triazol-3-yl)cyclobutyl)benzamide] | 120 | 580 | – | – | –
